Assay results reported in patent publication US20240366634A1, “METHODS FOR THE TREATMENT OF CB1-, TRPA1- AND TRPV1-DEPENDENT CONDITIONS” (BUZZELET DEVELOPMENT AND TECHNOLOGIES LTD., priority 2021, published 2024).

Assays:
Type in all cases: cell-based
[1] = molecular target: T1, hTRPA1 (Homo sapiens, UniProt O75762); test: Live-cell calcium imaging (Fura-2) of TRPA1 activation in TREx 293 cells
T1 construct: expressed in transfected cells; host or cells: TREx 293 cells, pcDNA4/TO vector, doxycycline-induced
T1 sequence (O75762 whole entry): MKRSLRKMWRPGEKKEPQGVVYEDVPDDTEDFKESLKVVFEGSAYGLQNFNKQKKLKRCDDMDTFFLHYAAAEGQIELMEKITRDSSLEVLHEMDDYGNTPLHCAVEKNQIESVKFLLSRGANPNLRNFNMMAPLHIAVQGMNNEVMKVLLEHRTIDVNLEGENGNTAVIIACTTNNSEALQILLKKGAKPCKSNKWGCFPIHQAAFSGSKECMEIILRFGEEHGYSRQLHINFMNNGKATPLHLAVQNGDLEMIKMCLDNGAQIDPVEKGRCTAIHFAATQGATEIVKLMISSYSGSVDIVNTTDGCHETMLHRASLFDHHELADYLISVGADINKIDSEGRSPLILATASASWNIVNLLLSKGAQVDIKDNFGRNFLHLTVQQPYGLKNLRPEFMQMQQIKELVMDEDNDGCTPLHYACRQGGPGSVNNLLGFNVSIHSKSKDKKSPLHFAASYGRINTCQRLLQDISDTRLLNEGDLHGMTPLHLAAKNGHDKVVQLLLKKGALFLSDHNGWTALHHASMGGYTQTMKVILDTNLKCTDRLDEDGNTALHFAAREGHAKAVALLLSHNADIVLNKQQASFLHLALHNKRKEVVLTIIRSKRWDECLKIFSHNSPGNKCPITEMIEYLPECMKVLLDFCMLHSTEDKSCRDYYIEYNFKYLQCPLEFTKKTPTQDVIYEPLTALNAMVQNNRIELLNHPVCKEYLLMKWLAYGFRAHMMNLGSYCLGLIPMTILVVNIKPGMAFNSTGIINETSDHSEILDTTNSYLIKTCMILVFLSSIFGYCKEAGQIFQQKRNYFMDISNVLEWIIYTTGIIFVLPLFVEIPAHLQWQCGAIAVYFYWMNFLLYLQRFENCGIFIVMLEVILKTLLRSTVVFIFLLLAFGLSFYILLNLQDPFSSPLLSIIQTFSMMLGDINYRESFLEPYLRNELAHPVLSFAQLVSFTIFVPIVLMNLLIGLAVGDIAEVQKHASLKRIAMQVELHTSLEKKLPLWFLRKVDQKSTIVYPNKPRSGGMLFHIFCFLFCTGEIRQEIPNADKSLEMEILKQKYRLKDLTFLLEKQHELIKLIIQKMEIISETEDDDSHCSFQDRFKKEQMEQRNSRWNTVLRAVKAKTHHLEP
Experimental: rTRPV1 or hTRPA1 were stably expressed in TREx 293 cells following the manufacturer's protocol (Invitrogen, MA, USA). Briefly, TREx host cell line (Invitrogen, MA, USA) was transfected with pcDNA4/TO containing the gene of interest using Mirus LT1 transfection reagent (Mirus Bio, WI, USA) with Opti-MEM I Reduced Serum Medium (Invitrogen, MA, USA). Successful recombination and maintenance were confirmed through zeocin (500 μg/ml; Invivogen, Toulouse, France) selection to establish a stably-transfected cell line. Cells were grown in DMEM (Sigma-Aldrich, MO, USA) supplemented with 10% FBS, 1% penicillin-streptomycin, 2 mM L-alanine L-glutamine, and 25 mM HEPES (pH 7.3) supplemented with 5 μg/ml blasticidin at 37° C. and 5% CO2. Cells were passaged twice per week. Three hours before analysis, cells were treated with doxycycline (0.2-1 μg/ml) to induce transgene expression.
Flip-in TREX293T cells were spotted at PDL (0.2 mg/ml)-coated imaging chambers (μ-slide, 8-well; Ibidi, Martinsried, Germany) and incubated for 1.5-2 h in a humidified incubator at 37° C. and 5% CO2. Cells were loaded with 3 μg/ml Fura-2 AM (Thermo Fisher Scientific) dissolved in Ringer solution. The imaging chamber was placed onto the inverted microscope (IX70; Olympus, Tokyo, Japan). Cells were illuminated with a 175W xenon arc lamp, and excitation wavelengths (340/380 nm) were selected by a Lambda DG-4 monochromatic wavelength changer (Sutter Instrument, Novato, CA, USA). Intracellular Ca2+ concentration was measured by digital video microfluorometry illuminated interline CCD camera (Exi Blue; QImaging, Surrey, BC, Canada) using MetaFluor fluorescence ratio imaging software (Molecular Devices). Dual images (340 and 380 nm excitation, 510 nm emission) were collected, and pseudocolor ratio-metric images were monitored every 4 s during the experiment. Data analysis was performed with MetaFluor fluorescence ratio imaging software. Data are presented as a normalized intensity of baseline fluorescence. All experiments were carried out at room temperature.
Data for THC (leftmost column) and for THC with a 1/10 concentration of a terpene are presented. Response amplitudes are normalized to the maximal activation obtained by administration of Allyl Isothiocyanate (AITC). Numbers in parentheses represent p values for the comparison of the TRPA1 activation for THC and for THC plus a 1/10 concentration terpene.

[2] = molecular target: T2, GIRK channel (Homo sapiens, UniProt P48051+P48549); test: Receptor-independent effect on GIRK current in oocytes expressing the GIRK channel but not the CB1 receptor
T2 construct: expressed in transfected cells; host or cells: Xenopus laevis oocytes injected with cRNA
T2 sequence (P48549 1-501): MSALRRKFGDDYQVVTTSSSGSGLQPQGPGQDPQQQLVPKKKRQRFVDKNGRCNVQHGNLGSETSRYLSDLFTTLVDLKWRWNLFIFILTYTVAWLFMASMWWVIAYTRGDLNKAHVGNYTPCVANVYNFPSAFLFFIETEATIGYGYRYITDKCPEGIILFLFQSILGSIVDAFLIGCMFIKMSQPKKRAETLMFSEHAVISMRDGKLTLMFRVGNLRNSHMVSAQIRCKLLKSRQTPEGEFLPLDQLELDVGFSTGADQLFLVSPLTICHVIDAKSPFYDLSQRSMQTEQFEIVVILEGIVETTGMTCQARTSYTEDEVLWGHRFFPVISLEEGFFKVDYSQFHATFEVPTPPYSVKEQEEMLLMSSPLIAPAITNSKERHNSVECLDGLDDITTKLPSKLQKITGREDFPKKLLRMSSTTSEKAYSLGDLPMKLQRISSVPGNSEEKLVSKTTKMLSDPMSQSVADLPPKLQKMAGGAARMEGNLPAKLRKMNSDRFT
T2 sequence (P48051 1-423): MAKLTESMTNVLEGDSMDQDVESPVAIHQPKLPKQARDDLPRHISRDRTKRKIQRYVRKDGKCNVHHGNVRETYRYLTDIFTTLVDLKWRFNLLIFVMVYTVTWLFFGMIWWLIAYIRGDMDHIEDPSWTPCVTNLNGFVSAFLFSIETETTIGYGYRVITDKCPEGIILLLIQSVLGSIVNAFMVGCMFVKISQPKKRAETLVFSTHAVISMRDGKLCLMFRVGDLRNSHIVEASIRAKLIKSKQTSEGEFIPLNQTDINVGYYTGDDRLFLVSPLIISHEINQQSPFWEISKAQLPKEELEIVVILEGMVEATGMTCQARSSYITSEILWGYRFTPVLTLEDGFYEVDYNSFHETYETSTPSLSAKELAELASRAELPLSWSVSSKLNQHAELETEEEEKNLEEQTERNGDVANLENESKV
Experimental: To do so, the effect of THC and a panel of various terpenes was measured on oocytes expressing the GIRK channel but not the CB1 receptor.

[3] = molecular target: T3, CB1 receptor (Homo sapiens, UniProt P21554); test: CB1 receptor activation by THC in combination with terpenes, Xenopus oocyte GIRK current; details: terpene:THC weight/weight ratio 1:10; ratio of THC concentrations evoking 50% of maximal response with and without terpene
T3 construct: expressed in transfected cells; host or cells: Xenopus laevis oocytes injected with cRNA
T3 sequence (P21554 whole entry): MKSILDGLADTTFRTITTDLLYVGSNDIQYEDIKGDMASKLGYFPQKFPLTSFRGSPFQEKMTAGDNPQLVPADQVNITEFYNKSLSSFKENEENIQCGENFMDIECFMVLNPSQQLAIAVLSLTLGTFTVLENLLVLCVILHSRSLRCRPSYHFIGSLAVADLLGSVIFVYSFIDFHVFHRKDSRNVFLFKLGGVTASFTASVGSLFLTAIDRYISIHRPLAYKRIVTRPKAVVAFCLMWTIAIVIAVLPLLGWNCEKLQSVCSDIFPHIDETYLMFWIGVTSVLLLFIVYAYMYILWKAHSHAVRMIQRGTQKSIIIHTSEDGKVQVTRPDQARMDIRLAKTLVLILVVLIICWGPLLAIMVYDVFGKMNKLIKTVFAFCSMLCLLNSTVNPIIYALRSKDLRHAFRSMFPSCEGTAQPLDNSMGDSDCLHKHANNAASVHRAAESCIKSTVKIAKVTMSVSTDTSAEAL
Experimental: Xenopus oocytes were used as a functional expression system, as described in Example 1.
Terpenes were administered together with tetrahydrocannabinol (THC) at a terpene to THC weight/weight ratio in the range between 0.05:1 and 1:1.
Augmented activation was given as fold change. Fold change in potency is given as the ratio between the THC concentration required to evoke 50% of the maximal response in the presence of terpene and the THC concentration that evoked the same response in the absence of terpene.

[4] = molecular target: T3, CB1 receptor; test: CB1 receptor activation by terpenes, CB1-mediated GIRK currents in Xenopus oocytes (two-electrode voltage clamp); details: 10 μM terpene alone; response amplitude normalized to response obtained with 10 μM THC; Xenopus oocytes expressing CB1, GIRK1/2, Gαi3
Experimental: To test the possibility that the presence of various terpenes affects the activation of the CB1 receptor, the Inventors used Xenopus oocytes as a functional expression system. To this end, Xenopus oocytes were injected with cRNAs of proteins involved in the pathway leading to activation of K+ currents by CB1 receptor via βγ subunits of the G-proteins: The CB1 receptor, the two subunits of the GIRK channel (GIRK1 and GIRK2), and the Gαi3 subunit.
cDNA plasmids of the two subunits (GIRK1 and GIRK2) of the G protein-coupled inwardly-rectifying potassium (GIRK) receptor, the CB1 receptor, and the α subunit of the G-protein (Gαi3) were linearized with the appropriate restriction enzymes. The linearized plasmids were transcribed in vitro using a standard procedure.
X. laevis oocytes were isolated and incubated in NDE96 solution composed of ND96 (in mM: 96 NaCl, 2 KCl, 1 CaCl2, 1 MgCl2, 5 Hepes, with pH adjusted to 7.5 with NaOH) with the addition of 2.5 mM Na+ pyruvate, 100 units/ml penicillin, and 100 μg/ml streptomycin. A day after their isolation, the oocytes were injected with the relevant cRNAs. cRNAs of CB1 receptor (2 ng) and GIRK1 and GIRK2 (200 pg each) were injected. In addition, cRNA of Gαi3 (1000 pg) was injected to decrease the basal GIRK current (IK) and to improve the relative activation by the agonist (17).
Currents were measured 3-5 days after cRNA injection and were recorded using the standard two-electrode voltage clamp technique (Axoclamp 2B amplifier, Axon Instruments, Foster City, CA). Each oocyte was placed in the recording bath containing ND96 solution and was impaled with two electrodes pulled from 1.5-mm Clark capillaries (CEI, Pangboure, England). Both electrodes were filled with 3M KCl solution and the electrodes resistances were between 1-5 MΩ). The CB1-mediated GIRK currents were measured in a 24 mM K+ solution (in mM: 72 NaCl, 24 KCl, 1 CaCl2, 1 MgCl2, 5 Hepes, with pH adjusted to 7.5 with KOH). pCLAMP10 software (Axon Instruments) was used for data acquisition and analysis.
Next, the dependence of the THC-induced K+ current (ITHC) on THC concentration (dose-response) was measured. The oocyte was voltage-clamped to-80 mV in a low K+ (2 mM K+) solution, ND96. Basal GIRK current (IK) was developed upon replacement of the ND96 by the 24 mM K+ solution. This current represents the basal activation of GIRK channel by endogenous βγ subunits present in the oocytes. Then, five concentrations of THC were applied sequentially, giving rise to ITHC. This current was terminated upon washout of THC. Employing this basic experimental protocol, a full dose-response curve was constructed. To be able to compare between oocytes, ITHC at any particular THC concentration was normalized to ITHC obtained at a 10 μM, defined as the reference response.
Next, the effect of terpenes on CB1 activation was assessed.
Response amplitudes were normalized to the response obtained with 10 μM THC.

[5] = 30 μM THC with a 1/10 concentration of the terpene
[6] = 8 μM THC with a 1/10 concentration of the terpene

Structure (SMILES)	Fold change of THC potency by terpene, at terpene:THC ratio of 1:10 [3]	Response to 10 μM terpene [4]	other results
CC(C)=CCCC(C)=CC=O [Citral]			TRPA1 response amplitude normalized to maximal activation by AITC [1, 5]: 0.96
CC1CCC(C(C)C)C(O)C1 (centres unmarked) [Menthol]			TRPA1 response amplitude normalized to maximal activation by AITC [1, 6]: 0.44
CCCCCc1cc(O)c2c(c1)OC(C)(C)[C@@H]1CCC(C)=C[C@@H]21 [THC, tetrahydrocannabinol, reference compound]			Effect on the GIRK current [2]: None of these compounds showed an effect on the GIRK current; TRPA1 response amplitude normalized to maximal activation by AITC ([1]; 8 μM THC alone): 0.35; TRPA1 response amplitude normalized to maximal activation by AITC ([1]; 30 μM THC alone): 0.8
CC1(C)C2CCC1(C)C(O)C2 (centres unmarked) [borneol]	4.469		
CC12CCC(CC1)C(C)(C)O2 [eucalyptol]		0.41 ± 0.04	TRPA1 response amplitude normalized to maximal activation by AITC [1, 6]: 0.48; TRPA1 response amplitude normalized to maximal activation by AITC [1, 5]: 0.93
CC(C)=CCC/C(C)=C/CO [geraniol]	1.576	0.31 ± 0.08	
C=C(C)[C@H]1CC=C(C)CC1 [limonene]	3.369	0.23 ± 0.02	
C=CC(C)(O)CCC=C(C)C (centres unmarked) [linalool]	1.553		TRPA1 response amplitude normalized to maximal activation by AITC [1, 6]: 0.44; TRPA1 response amplitude normalized to maximal activation by AITC [1, 5]: 0.93
C=CC(=C)CCC=C(C)C [myrcene]		0.26 ± 0.07	
C=CC(C)=CCC=C(C)C [ocimene]	2.639	0.36 ± 0.05	
C=C1CCC2(C(C)C)CC12 (centres unmarked) [sabinene]	1.685		
CC1=CCC(=C(C)C)CC1 [terpinolene]		0.45 ± 0.02	
CC1=CCC2CC1C2(C)C (stereo not drawn) [α-pinene]		0.29 ± 0.03	
C=C1CCC2CC1C2(C)C (stereo not drawn) [β-pinene]		0.29 ± 0.06	
